Data as given in patent USRE32300E, “Basic amino or ammonium antimicrobial agent-polyethylene glycol ester surfactant-betaine and/or amine oxide surfactant compositions and method of use thereof” (Sterling Drug Inc., priority 1985, dated 1986).

Test system: Staphylococcus aureus ATCC 6538
Test: serial dilution test against Staphylococcus aureus ATCC 6538 (compatibility of antimicrobial agents with prototype vehicle)
Type: cell-based
Details: Id expressed as free base, IVa-IVc as cation (A=Br)
Experimental: Compatability of the antimicrobial agents of Formula Id, Formula IIa, Formula IVa (A=Br), Formula IVb (A=Br) and Formula IVc (A=Br) with a prototype vehicle of the invention was tested by a serial dilution test against Staphylococcus aureus ATCC 6538. Volumes of two milliliters were used. Dilutions were in tryptosephosphate broth. Incubation was for 16-18 hours at 37° C. Growth was verified with 2,3,5-triphenyltetrazoliumchloride. The inoculum was 1.8×10^5 viable cells per tube. There follows the formula of the prototype vehicle.

| Minimum Inhibitory Concentration (MIC) (added vehicle 125.0 μg/ml) [µg/mL] | Minimum Inhibitory Concentration (MIC) (added vehicle 250.0 μg/ml) [µg/mL] | Minimum Inhibitory Concentration (MIC) (added vehicle 500.0 μg/ml) [µg/mL] | Minimum Inhibitory Concentration (MIC) (added vehicle 2000.0 μg/ml) [µg/mL] | Minimum Inhibitory Concentration (MIC) (added vehicle 8000.0 μg/ml) [µg/mL] | Minimum Inhibitory Concentration (MIC) (added vehicle 0 μg/ml) [µg/mL] | Minimum Inhibitory Concentration (MIC) (added vehicle 15.6 μg/ml) [µg/mL] | Minimum Inhibitory Concentration (MIC) (added vehicle 31.2 μg/ml) [µg/mL] | Minimum Inhibitory Concentration (MIC) (added vehicle 62.5 μg/ml) [µg/mL] | Structure (SMILES) |
| --- | --- | --- | --- | --- | --- | --- | --- | --- | --- |
| 0.10 | 0.10 | 0.10 | 0.10 | 0.10 | – | – | – | – | CCCCCCCNc1cc[n+](CCCCCCCCCCCC[n+]2ccc(NCCCCCCC)cc2)cc1 [Formula IVa] |
| 0.5 | – | – | – | – | 0.5 | 0.5 | 0.5 | 0.5 | CCCCCCCCNc1cc[n+](CCCCCCCCCC[n+]2ccc(NCCCCCCCC)cc2)cc1 [Formula IVb] |
